# Experimental data taken from patent publication US4103011A, “Novel penicillin compounds and process for preparation thereof” (priority 1976, dated 1978).
# Where a name gives a salt, the structure may show the parent alone. Read-outs that look alike come from different tables or passages of the source.
# Key:
# [1] = test system: Streptococcus pyogenes 65A; assay: In vitro antibacterial activity (MIC); assay type: cell-based; conditions: Streptococcus pyogenes 65A; read-out: minimum inhibitory concentration (MIC)
# Description: (§1) In vitro antibacterial activity against 20 strains of bacteria
# (§2) The numerals in the table show minimum inhibitory concentrations (MIC)
# Escherichia coli P-5101 [2] = assay: In vitro antibacterial activity (MIC); assay type: cell-based; conditions: Escherichia coli, P5101, read-out: minimum inhibitory concentration (MIC)
# Description: as §1, §2
# Escherichia coli P-140a = assay: In vitro antibacterial activity (MIC); assay type: cell-based
# Description: as §1, §2
# Proteus rettgeri P-2503 = assay: In vitro antibacterial activity (MIC); assay type: cell-based; conditions: Providencia rettgeri
# Description: as §1, §2
# [3] = test system: Escherichia coli NIHJ JC-2; assay: In vitro antibacterial activity (MIC); assay type: cell-based
# Description: as §1, §2
# [4] = test system: Klebsiella pneumoniae No. 13; assay: In vitro antibacterial activity (MIC); assay type: cell-based; conditions: Klebsiella pneumoniae No. 13; read-out: minimum inhibitory concentration (MIC)
# Description: as §1, §2
# [5] = test system: Salmonella enteritidis No. 1891; assay: In vitro antibacterial activity (MIC); assay type: cell-based; conditions: Salmonella enterica; Salmonella enteritidis No. 1891; read-out: minimum inhibitory concentration (MIC)
# Description: as §1, §2
# [6] = test system: Serratia mercescens IFO 3736; assay: In vitro antibacterial activity (MIC); assay type: cell-based
# Description: as §1, §2
# [7] = test system: Staphylococcus aureus No. 50774; assay: In vitro antibacterial activity (MIC); assay type: cell-based; conditions: Staphylococcus aureus No. 50774; read-out: minimum inhibitory concentration (MIC)
# Description: as §1, §2
# [8] = test system: Staphylococcus aureus 209P JC-1; assay: In vitro antibacterial activity (MIC); assay type: cell-based; conditions: Staphylococcus aureus 209P JC-1; read-out: minimum inhibitory concentration (MIC)
# Description: as §1, §2
# Proteus morganii Kono = assay: In vitro antibacterial activity (MIC); assay type: cell-based; conditions: Morganella morganii; Proteus morganii Kono; read-out: minimum inhibitory concentration (MIC)
# Description: as §1, §2
# [9] = test system: Streptococcus faecalis P-2473; assay: In vitro antibacterial activity (MIC); assay type: cell-based; conditions: Enterococcus faecalis
# Description: as §1, §2
# [10] = test system: Shigella flexneri 4a P-330; assay: In vitro antibacterial activity (MIC); assay type: cell-based; conditions: 4AP330, read-out: minimum inhibitory concentration (MIC)
# Description: as §1, §2
# [11] = test system: Pseudomonas aeruginosa No.12; assay: In vitro antibacterial activity (MIC); assay type: cell-based
# Description: as §1, §2
# [12] = test system: Pseudomonas aeruginosa Tsuchijima; assay: In vitro antibacterial activity (MIC); assay type: cell-based; conditions: read-out: minimum inhibitory concentration (MIC)
# Description: as §1, §2
# [13] = test system: Salmonella typhimurium S-9; assay: In vitro antibacterial activity (MIC); assay type: cell-based; conditions: Salmonella enterica; Salmonella typhimurium S-9; read-out: minimum inhibitory concentration (MIC)
# Description: as §1, §2
# [14] = test system: Enterobacter cloacae P-2540; assay: In vitro antibacterial activity (MIC); assay type: cell-based
# Description: as §1, §2
# [15] = test system: Corynebacterium pyogenes C-21; assay: In vitro antibacterial activity (MIC); assay type: cell-based; conditions: Rhodococcus (subgen. Prescottella) equi, C21; Corynebacterium pyogenes C-21; read-out: minimum inhibitory concentration (MIC)
# Description: as §1, §2
# Shigella flexneri 2a = assay: In vitro antibacterial activity (MIC); assay type: cell-based; conditions: read-out: minimum inhibitory concentration (MIC)
# Description: as §1, §2
# Proteus mirabilis P-2381 = assay: In vitro antibacterial activity (MIC); assay type: cell-based; conditions: P2381; Proteus mirabilis P-2381; read-out: minimum inhibitory concentration (MIC)
# Description: as §1, §2
# [16] = test system: Pseudomonas aeruginosa No. 12; assay: In vivo efficacy against systemic infection; set-up: species or system male mice (ddY); conditions: NO.12, in Mus musculus, twice, about 5 minutes and 6 hours after infection, read-out: ED50 (median effective dose)
# Experimental: (§3) The contents in the vials (No. A and No. C) prepared in Example 17 were each dissolved in deionized water, and injections having various concentrations were prepared.
# (§4) Compounds A, B, F, G, H and M were dissolved in deionized water.
# (§5) Mice: male mice (ddY) weighting about 20g
# Pseudomonas aeruginosa No. 12;
# (§6) Intraperitoneal infection with 50 to
# (§7) of a bacterial suspension in tryptosoy
# (§8) twice, about 5 minutes and 6 hours after
# Pseudomonas aeruginosa No. 12
# (§9) calculated in accordance with the Behrens-Kaerber method [Arch. Exp. Path
# [17] = test system: Staphylococcus aureus No. 50774; assay: In vivo efficacy against systemic infection; set-up: species or system male mice (ddY); conditions: NO.50774, in Mus musculus, 336 h, sc, twice, about 5 minutes and 6 hours after infection, read-out: ED50 (median effective dose)
# Experimental: as §3
# (§10) Compounds A, B, F, G, H and M were dissolved in deionized water. Compounds C, D, E and J were dissolved in an aqueous solution of sodium carbonate (pH 8-9) to prepare injections of various concentrations.
# (§11) Each of the injections was administered to mice under the conditions described below, and the median effective doses (ED50) obtained are shown in Table II.
# as §5
# Staphylococcus aureus No. 50774;
# Intravenous infection with 50 to 100
# LD50 (about 5 × 10^8cells/mouse) of a
# bacterial suspension in saline.
# as §8
# Staphylococcus aureus No. 50774 14 days
# The numerals in the table show ED50 (mg/kg). ED50 values were
# as §9
# Escherichia coli P-5101 [18] = assay: In vivo efficacy against systemic infection; set-up: species or system male mice (ddY); conditions: P5101, in Mus musculus, 168 h, twice, about 5 minutes and 6 hours after infection, read-out: ED50 (median effective dose)
# Experimental: as §3, §4, §5, §6, §7, §8, §9
# 20 strains of bacteria = assay: In vitro antibacterial activity, overall conclusions; assay type: cell-based
# Description: as §1
# [19] = test system: bacteria (systemic infection); assay: In vivo efficacy against systemic infection, overall conclusions; set-up: species or system male mice (ddY); conditions: Table II
# Experimental: as §3, §10, §11
# mice = conditions: mice
# in vivo = conditions: mouse
# [20] = P2503, Proteus rettgeri P-2503, read-out: minimum inhibitory concentration (MIC)
# [21] = Escherichia coli, NIHJJC2, read-out: minimum inhibitory concentration (MIC)
# [22] = Serratia, IFO3736, read-out: minimum inhibitory concentration (MIC)
# [23] = Pseudomonas aeruginosa No.12, read-out: minimum inhibitory concentration (MIC)
# [24] = Pseudomonas aeruginosa Tsuchijima
# [25] = P2540, Enterobacter cloacae P-2540, read-out: minimum inhibitory concentration (MIC)
# [26] = P2473, read-out: minimum inhibitory concentration (MIC)
Structure (SMILES),MIC [1] [µg/mL],MIC (Escherichia coli P-5101 [2]) [µg/mL],minimum inhibitory concentration (MIC) (Escherichia coli P-140a) [µg/mL],MIC (Proteus rettgeri P-2503; [20]) [µg/mL],"MIC [3, 21] [µg/mL]",MIC [4] [µg/mL],MIC [5] [µg/mL],"MIC [6, 22] [µg/mL]",MIC [7] [µg/mL],MIC [8] [µg/mL],MIC (Proteus morganii Kono) [µg/mL],MIC [10] [µg/mL],MIC [13] [µg/mL],MIC [15] [µg/mL],MIC (Shigella flexneri 2a) [µg/mL],MIC (Proteus mirabilis P-2381) [µg/mL],ED50 ([16]; sc) [mg/kg],ED50 [17] [mg/kg],ED50 (Escherichia coli P-5101 [18]; iv) [mg/kg],ED50 (Escherichia coli P-5101 [18]; sc) [mg/kg],other results
"CC1(C)S[C@@H]2[C@H](NC(=O)[C@H](N)c3ccc(O)cc3)C(=O)N2[C@H]1C(=O)O [Compound M, D-α-Amino-p-hydroxybenzylpenicillin sodium salt]",0.025,6.25,> 200,50,6.25,200,0.39,50,0.1,0.1,200,25,0.78,0.39,6.25,1.56,> 200,0.34,3.2,3.4,"MIC ([9]; P2473, Streptococcus faecalis P-2473, read-out: minimum inhibitory concentration (MIC)): 0.78 µg/mL; MIC [11, 23]: > 200 µg/mL; MIC [12, 24]: 200 µg/mL; MIC [14, 25]: > 200 µg/mL; antibacterial activity (in words) (20 strains of bacteria; Ampicillin-resistant strains): does not exhibit antibacterial activity; antibacterial activity (in words) (20 strains of bacteria; E. coli P-140a, Klebsiella pneumonia, Enterobacter cloacae, Pseudomonas aeruginosa, Serratia marcescens): substantially ineffective; antibacterial activity (in words) (20 strains of bacteria; bacteria of the genus Pseudomonas): substantially ineffective"
"CCN1CCN(C(=O)N[C@@H](C(=O)N[C@@H]2C(=O)N3[C@@H]2SC(C)(C)[C@@H]3C(=O)O)c2ccccc2)C(=O)C1=O [Compound H, D-α-(4-Ethyl-2,3-dioxopiperazine-1-carboxamido)-benzylpenicillin sodium salt]",0.025,1.56,12.5,–,3.13,6.25,0.39,0.78,0.78,0.39,0.78,3.13,0.39,6.25,1.56,0.78,141,8.8,43.3,26.3,"MIC (Proteus rettgeri P-2503; P2503, read-out: minimum inhibitory concentration (MIC)): 1.56 µg/mL; MIC [9, 26]: 3.13 µg/mL; MIC ([11]; Pseudomonas aeruginosa, NO.12, read-out: minimum inhibitory concentration (MIC)): 3.13 µg/mL; MIC ([12]; Pseudomonas aeruginosa): 1.56 µg/mL; MIC ([14]; Enterobacter cloacae, P2540, read-out: minimum inhibitory concentration (MIC)): 3.13 µg/mL; ED50 ([16]; iv): > 100 mg/kg; antibacterial activity in vivo as fraction of that of the penicillin compounds of this invention [19]: one-twentieth to one-seventieth; LD50 compared with compounds 1 and 2 (in words) (mice): almost the same; LD50 at 168 h (in vivo; iv): > 4000 mg/kg; LD50 at 168 h (in vivo; sc): > 6000 mg/kg; selectivity ratio (in vivo; sc): > 42"
"CN1CCN(c2ncc3c(=O)c(C(=O)N[C@@H](C(=O)N[C@@H]4C(=O)N5[C@@H]4SC(C)(C)[C@@H]5C(=O)O)c4ccc(O)cc4)c[nH]c3n2)CC1 [Compound A, D-α-[5,8-Dihydro-2-(4-methyl-1-piperazinyl)-5-oxopyrido[2,3-d]pyrimidine-6-carboxamido]-p-hydroxybenzylpenicillin sodium salt]",< 0.1,0.39,6.25,6.25,–,6.25,0.2,–,3.13,1.56,3.13,0.78,0.2,0.78,0.78,3.13,3.6,3.7,0.7,1,"MIC ([3]; NIHJJC2, Escherichia coli NIHJ JC-2, read-out: minimum inhibitory concentration (MIC)): 0.78 µg/mL; MIC ([6]; IFO3736, Serratia mercescens IFO 3736, read-out: minimum inhibitory concentration (MIC)): 3.13 µg/mL; MIC [9, 26]: 6.25 µg/mL; MIC [11, 23]: 1.56 µg/mL; MIC [12, 24]: 0.39 µg/mL; MIC [14, 25]: 3.13 µg/mL; ED50 ([16]; iv): 2.6 mg/kg; antibacterial activity in vivo (in words) [19]: almost comparable; LD50 at 168 h (in vivo; iv): 1120 mg/kg; selectivity ratio (in vivo; iv): 432; LD50 at 168 h (in vivo; sc): 1500 mg/kg; selectivity ratio (in vivo; sc): 417"
